The subject of one data set is spring wheat (TRZAS). Description: Postemergence greenhouse trial, % visual injury on spring wheat. The class given is in vivo, Triticum aestivum. Particulars: TRZAS. The method, boiled down:
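Postemergence greenhouse spray (187 L/ha, 1.5% v/v Agri-dex in water, acetone/DMSO stocks) on plants at second–third true leaf stage, ~23/22 °C, 14 h photoperiod; herbicides in g ae/ha, safener cloquintocet-mexyl in g ai/ha. Visual injury 0–100% versus solvent-blank controls after 20–22 d; Colby's equation gave expected mixture effects.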

Another data set concerns shepherd's purse (CAPBP). Description: Postemergence greenhouse trial, % visual injury on shepherd's purse. The class given is in vivo, Capsella bursa-pastoris. Particulars: CAPBP, CQC-m 0. As to the method: Seeds of the desired test plant species were planted in Sun Gro MetroMix® 306 planting mixture, which typically has a pH of 6.0 to 6.8 and an organic matter content of about 30 percent, in plastic pots with a surface area of 103.2 square centimeters (cm^2). When required to ensure good germination and healthy plants, a fungicide treatment and/or other chemical or physical treatment was applied. The plants were grown for 7-36 days (d) in a greenhouse with an approximate 14-hour (h) photoperiod which was maintained at about 23° C. during the day and 22° C. during the night. Nutrients and water were added on a regular basis and supplemental lighting was provided with overhead metal halide 1000-Watt lamps as necessary. The plants were employed for testing when they reached the second or third true leaf stage.
Weighed amounts of technical material were dissolved in a volume of 97:3 volume per volume (v/v) acetone/dimethyl sulfoxide (DMSO) to stock solutions. […] The concentrated stock solutions were diluted with an aqueous mixture of 1.5% v/v of Agri-dex crop oil concentrate to provide the appropriate application rates. Compound requirements are based upon a 12 milliliter (mL) application volume at a rate of 187 liters per hectare (L/ha). Stocks solutions of the safeners were prepared following the same procedure. Spray solutions of the safeners and experimental compound mixtures were prepared by adding the stock solutions to the appropriate amount of dilution solution to form a 12 mL spray solution in two-way combinations. Formulated compounds were applied to the plant material with an overhead Mandel track sprayer equipped with 8002E nozzles calibrated to deliver 187 L/ha over an application area of 0.503 square meters (m^2) at a spray height of 18 inches (43 centimeters (cm)) above average plant canopy. Control plants were sprayed in the same manner with the solvent blank. All herbicide application (component a) rates are in g ae/ha and all safener (component b) rates are in g ai/ha.
The treated plants and control plants were placed in a greenhouse as described above and watered by sub-irrigation to prevent wash-off of the test compounds. After 20-22 d, the condition of the test plants as compared with that of the control plants was determined visually and scored on a scale of 0 to 100 percent where 0 corresponds to no injury and 100 corresponds to complete kill. The condition of the test plants was compared with that of the control plants as determined visually and scored on a scale of 0 to 100 percent, where 0 corresponds to no injury and 100 corresponds to complete kill. Colby's equation was used to determine the herbicidal effects expected from the mixtures.
The safener cloquintocet-mexyl was combined with compound 1, compound 2, compound 3, compound 7, compound 8, compound 9, compound 10, compound 11, compound 12, compound 13, compound 14, compound 15, compound 16, compound 17, compound 18, compound 19, and compound 20, and applied to spring wheat (TRZAS), winter wheat (TRZAW), and spring barley (HORVS) and the phytotoxicity of the herbicidal compositions was measured. […]

The test system of the next data set is Russian thistle (SASKR). Description: Postemergence greenhouse trial, % visual injury on Russian thistle. The data set is classed as in vivo, Salsola kali. The following applies: SASKR.
The next data set concerns wild mustard (SINAR). Description: Postemergence greenhouse trial, % visual injury on wild mustard. The class given is in vivo, Sinapis arvensis. The following applies: SINAR; for pest or weed control at 4.38 g/ha / pest or weed control at 8.75 g/ha / pest or weed control at 17.5 g/ha / pest or weed control at 35 g/ha / pest or weed control at 70 g/ha: Brassica, post-emergence, CQC-m 0, read-out: % visual injury, Ob; for pest or weed control at 4.38 g/ha: compound 4.380 g/ha; for % visual injury, Ob: CQC-m 0 g/ha. In short, it runs like this:
(§1)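 Herbicide rates g ae/ha, safener (cloquintocet-mexyl) rates g ai/ha; spray carrier 1.5% v/v crop oil concentrate, 187 L/ha, 2nd–3rd leaf stage. Rating: visual % injury at 20-22 d.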

The next data set concerns common poppy (PAPRH). Description: Postemergence greenhouse trial, % visual injury on common poppy. The following applies: PAPRH; for % visual injury, Ob: CQC-m 0 g/ha. The class given is in vivo, Papaver rhoeas. The method, boiled down: as §1
The next data set relates to cornflower (CENCY). Description: Postemergence greenhouse trial, % visual injury on cornflower. The class given is in vivo, Centaurea cyanus or Cyanus segetum. The following applies: CENCY, CQC-m 0 g/ha.
The test system of a further data set is lambsquarters (CHEAL). Description: Postemergence greenhouse trial, % visual injury on lambsquarters. Particulars: Chenopodium album, post-emergence, CHEAL, CQC-m 0, read-out: % visual injury, Ob. The data set is classed as in vivo, Chenopodium album. In short, it runs like this:
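Plants at second or third true leaf stage, greenhouse-grown (14 h photoperiod, ~23/22° C.), sprayed postemergence with compounds alone or with safener cloquintocet-mexyl in 1.5% v/v Agri-dex crop oil at 187 L/ha. Visual injury scored 0–100% versus solvent-blank controls after 20-22 d; expected mixture effects by Colby's equation.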

[1] abbreviates: compound 4.375 g/ha, CQC-m 0 g/ha.
[2] abbreviates: compound 8.75 g/ha, CQC-m 0 g/ha.
[3] abbreviates: compound 17.5 g/ha, CQC-m 0 g/ha.

Each structure is given as a SMILES string.

As to `CO/C=N/c1c(F)c(-c2ccc3cc[nH]c3c2F)nc(C(=O)OC)c1Cl` [compound 10], the “% visual injury, Ob” value in the data set on spring wheat (TRZAS) (compound 4.380 g/ha, CQC-m 0) worked out at 10%; in the data set with spring wheat (TRZAS) (compound 8.75 g/ha, CQC-m 0), 25%; with spring wheat (TRZAS) (compound 17.5 g/ha, CQC-m 0), 40%; in the data set on spring wheat (TRZAS) (compound 35 g/ha, CQC-m 0), 60%; with spring wheat (TRZAS) (compound 70 g/ha, CQC-m 0), 70%; in the data set with shepherd's purse (CAPBP) (compound 4.380 g/ha), 30%. The “% visual injury, Ob” value in the data set on shepherd's purse (CAPBP) (compound 17.5 g/ha) is reported as 100%; in the data set with shepherd's purse (CAPBP) (compound 70 g/ha) it was 100%; in the data set with Russian thistle (SASKR) (compound 4.380 g/ha, CQC-m 0), 70%; in the data set on Russian thistle (SASKR) (compound 8.75 g/ha, CQC-m 0) it was 80%; in the data set with Russian thistle (SASKR) (compound 17.5 g/ha, CQC-m 0), 87%; in the data set on Russian thistle (SASKR) (compound 35 g/ha, CQC-m 0), 90%. In the data set with Russian thistle (SASKR) (compound 70 g/ha, CQC-m 0), the “% visual injury, Ob” value is 93%. Further, the pest or weed control at 4.38 g/ha in the data set with wild mustard (SINAR) turned out to be 90%. For the same compound, the pest or weed control at 8.75 g/ha in the data set with wild mustard (SINAR) (compound 8.75 g/ha) is 93%. Besides, the pest or weed control at 17.5 g/ha with wild mustard (SINAR) (compound 17.5 g/ha) was determined as 97%. Besides, in the data set with wild mustard (SINAR) (compound 35 g/ha), the pest or weed control at 35 g/ha amounted to 100%. For the same compound, the pest or weed control at 70 g/ha in the data set on wild mustard (SINAR) (compound 70 g/ha) came to 100%.
`COc1c(C(=O)O)nc(-c2ccc3cc[nH]c3c2F)c(F)c1N` [compound 13]: the “% visual injury, Ob” value with spring wheat (TRZAS) (setting [1]) amounted to 40%; in the data set on spring wheat (TRZAS) (setting [2]), 53%; in the data set with spring wheat (TRZAS) (setting [3]), 67%; in the data set on spring wheat (TRZAS) (compound 35 g/ha, CQC-m 0 g/ha), 80%; in the data set on spring wheat (TRZAS) (compound 70 g/ha, CQC-m 0 g/ha) it was 87%; in the data set with common poppy (PAPRH) (compound 4.375 g/ha), 90%. Besides, the “% visual injury, Ob” value was 100% in the data set on common poppy (PAPRH) (compound 8.75 g/ha); 100% in the data set on common poppy (PAPRH) (compound 17.5 g/ha); 100% in the data set on common poppy (PAPRH) (compound 35 g/ha); 100% with common poppy (PAPRH) (compound 70 g/ha); 50% in the data set with Russian thistle (SASKR) (setting [1]); 65% in the data set on Russian thistle (SASKR) (setting [2]). The “% visual injury, Ob” value in the data set with Russian thistle (SASKR) (setting [3]) was 77%; in the data set with Russian thistle (SASKR) (compound 35 g/ha, CQC-m 0 g/ha) it was 83%; with Russian thistle (SASKR) (compound 70 g/ha, CQC-m 0 g/ha), 91%; with wild mustard (SINAR) (compound 4.375 g/ha) it was 95%; in the data set on wild mustard (SINAR) (compound 8.75 g/ha) it was 100%; in the data set on wild mustard (SINAR) (compound 17.5 g/ha) it was 100%. Also, the “% visual injury, Ob” value in the data set on wild mustard (SINAR) (compound 35 g/ha), in the data set with wild mustard (SINAR) (compound 70 g/ha), in the data set on cornflower (CENCY) (compound 4.375 g/ha), in the data set with cornflower (CENCY) (compound 8.75 g/ha), with cornflower (CENCY) (compound 17.5 g/ha) and with cornflower (CENCY) (compound 35 g/ha) was 100% each time. The “% visual injury, Ob” value with cornflower (CENCY) (compound 70 g/ha) is given as 100%.
For the compound `CCCCOC(=O)c1nc(-c2ccc3cc[nH]c3c2F)c(F)c(N)c1Cl` [compound 9], the “% visual injury, Ob” value with spring wheat (TRZAS) (compound 4.380 g/ha, CQC-m 0) was determined as 10%; in the data set with spring wheat (TRZAS) (compound 8.75 g/ha, CQC-m 0) it was 25%; in the data set with spring wheat (TRZAS) (compound 17.5 g/ha, CQC-m 0), 30%; in the data set on spring wheat (TRZAS) (compound 35 g/ha, CQC-m 0), 50%; in the data set with spring wheat (TRZAS) (compound 70 g/ha, CQC-m 0), 60%; in the data set with Russian thistle (SASKR) (compound 4.380 g/ha, CQC-m 0), 65%. Also, the “% visual injury, Ob” value came out at 70% in the data set with Russian thistle (SASKR) (compound 8.75 g/ha, CQC-m 0); 80% in the data set with Russian thistle (SASKR) (compound 17.5 g/ha, CQC-m 0); 85% in the data set on Russian thistle (SASKR) (compound 35 g/ha, CQC-m 0); 87% in the data set with Russian thistle (SASKR) (compound 70 g/ha, CQC-m 0). For the same compound, the pest or weed control at 4.38 g/ha in the data set with lambsquarters (CHEAL) (compound 4.380 g/ha) was found to be 85%; in the data set with common poppy (PAPRH) (Papaver rhoeas, post-emergence, compound 4.380 g/ha, CQC-m 0, read-out: % visual injury, Ob), 90%; in the data set with wild mustard (SINAR) it was 93%. In addition, the pest or weed control at 8.75 g/ha with lambsquarters (CHEAL) (compound 8.75 g/ha) was found to be 80%; in the data set with common poppy (PAPRH) (Papaver rhoeas, post-emergence, compound 8.75 g/ha, CQC-m 0, read-out: % visual injury, Ob), 87%; in the data set on wild mustard (SINAR) (compound 8.75 g/ha) it was 95%. Moreover, the pest or weed control at 17.5 g/ha in the data set with lambsquarters (CHEAL) (compound 17.5 g/ha) was determined as 95%; in the data set with common poppy (PAPRH) (Papaver rhoeas, post-emergence, compound 17.5 g/ha, CQC-m 0, read-out: % visual injury, Ob), 100%; in the data set with wild mustard (SINAR) (compound 17.5 g/ha), 95%. Moreover, the pest or weed control at 35 g/ha was 100% with lambsquarters (CHEAL) (compound 35 g/ha); 93% in the data set with common poppy (PAPRH) (Papaver rhoeas, post-emergence, compound 35 g/ha, CQC-m 0, read-out: % visual injury, Ob); 100% with wild mustard (SINAR) (compound 35 g/ha). Also, the pest or weed control at 70 g/ha was determined as 100% in the data set on lambsquarters (CHEAL) (compound 70 g/ha); 100% in the data set on common poppy (PAPRH) (Papaver rhoeas, post-emergence, compound 70 g/ha, CQC-m 0, read-out: % visual injury, Ob); 100% with wild mustard (SINAR) (compound 70 g/ha).

The record behind these values is patent publication US9763445B2, “Safened herbicidal compositions comprising a pyridine carboxylic acid herbicide” (Dow AgroSciences, LLC, priority 2014, dated 2017).
